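Assay format: 96-well plates, 48-hour exposure. Abbreviation: GI50, concentration required for 50% inhibition of growth. Definition used: TGI = concentration required for complete inhibition of growth.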
Key:
Experiment in all cases: DTP human tumour cell line panel, 48 h
[1] = system: A498 renal
[2] = system: UO-31 renal
[3] = system: SN12C renal
[4] = system: U251 CNS
[5] = system: SK-MEL-2 melanoma
[6] = system: NCI-H226 lung
[7] = system: HL-60(TB) leukemia
[8] = system: SF-295 CNS
[9] = system: KM12 colon
[10] = system: PC-3 prostate
[11] = system: OVCAR-8 ovarian
[12] = system: IGROV1 ovarian
[13] = system: K-562 leukemia
[14] = system: ACHN renal
[15] = system: RPMI-8226 leukemia
[16] = system: DU-145 prostate
[17] = system: HCC-2998 colon
[18] = system: NCI/ADR-RES ovarian
[19] = system: T-47D breast
[20] = system: OVCAR-4 ovarian
[21] = system: HOP-62 NSCLC
[22] = system: SF-268 CNS
[23] = system: MALME-3M melanoma
[24] = system: HCT-15 colon
[25] = system: HT29 colon
[26] = system: UACC-62 melanoma
[27] = system: MDA-MB-435
[28] = system: SK-OV-3 ovarian
[29] = system: HCT-116 colon
[30] = system: EKVX NSCLC
[31] = system: MCF7 breast
[32] = system: SR leukemia
[33] = system: SK-MEL-5 melanoma
[34] = system: OVCAR-5 ovarian
[35] = system: 786-0 renal
[36] = system: SNB-75 CNS
[37] = system: CAKI-1 renal
[38] = system: HOP-92 NSCLC
[39] = system: NCI-H522 lung
[40] = system: TK-10 renal
[41] = system: MOLT-4 leukemia
[42] = system: COLO 205 colon
[43] = system: SNB-19 CNS
[44] = system: NCI-H23 lung
[45] = system: NCI-H460 lung
[46] = system: UACC-257 melanoma
[47] = system: OVCAR-3 ovarian
[48] = system: RXF 393 renal
[49] = system: SF-539 CNS
[50] = system: CCRF-CEM leukemia
[51] = system: BT-549 breast
[52] = system: M14 melanoma
[53] = system: A549 NSCLC
[54] = system: SK-MEL-28 melanoma
[55] = system: MDA-MB-468 breast

COc1ccc(-c2ccnc(SCc3cc4ccccc4[nH]c3=O)n2)cc1OC
GI50 [1]: 17.8 µM
TGI [1]: 50.9 µM
GI50 [2]: 11.1 µM
TGI [2]: 26.6 µM
GI50 [3]: 12.4 µM
TGI [3]: 34.9 µM
GI50 [4]: 19.9 µM
TGI [4]: > 100 µM
GI50 [5]: 16.9 µM
TGI [5]: 50.4 µM
GI50 [6]: 13 µM
TGI [6]: 37.2 µM
GI50 [7]: 99.6 µM
TGI [7]: > 100 µM
GI50 [8]: 13.7 µM
TGI [8]: 34 µM
GI50 [9]: 30.8 µM
TGI [9]: > 100 µM
GI50 [10]: 16.5 µM
TGI [10]: 50.8 µM
GI50 [11]: 23.2 µM
TGI [11]: > 100 µM
GI50 [12]: 16.8 µM
TGI [12]: 39.8 µM
GI50 [13]: 5.48 µM
TGI [13]: > 100 µM
GI50 [14]: 13.5 µM
TGI [14]: 27.8 µM
GI50 [15]: 16.3 µM
TGI [15]: > 100 µM
GI50 [16]: 18.1 µM
TGI [16]: 71.9 µM
GI50 [17]: 21.4 µM
TGI [17]: 58.8 µM
GI50 [18]: 14.3 µM
TGI [18]: 49.8 µM
GI50 [19]: 11 µM
TGI [19]: 38.9 µM
GI50 [20]: 19.1 µM
TGI [20]: 84.6 µM
GI50 [21]: 16.4 µM
TGI [21]: 45.8 µM
GI50 [22]: 20.8 µM
TGI [22]: > 100 µM
GI50 [23]: 23.1 µM
TGI [23]: 54.4 µM
GI50 [24]: 20 µM
TGI [24]: > 100 µM
GI50 [25]: 18.8 µM
TGI [25]: 40.6 µM
GI50 [26]: 14.5 µM
TGI [26]: 41 µM
GI50 [27]: 30.6 µM
TGI [27]: > 100 µM
GI50 [28]: 19.9 µM
TGI [28]: 41.7 µM
GI50 [29]: 21.2 µM
TGI [29]: > 100 µM
GI50 [30]: 14.6 µM
TGI [30]: 53.5 µM
GI50 [31]: 26.9 µM
TGI [31]: > 100 µM
GI50 [32]: 18.3 µM
TGI [32]: > 100 µM
GI50 [33]: 13 µM
TGI [33]: 42.8 µM
GI50 [34]: 12.7 µM
TGI [34]: 30.8 µM
GI50 [35]: 14.5 µM
TGI [35]: 37.9 µM
GI50 [36]: 4.36 µM
TGI [36]: 23.6 µM
GI50 [37]: 8.22 µM
TGI [37]: 25.4 µM
GI50 [38]: 1.84 µM
TGI [38]: 14.9 µM
GI50 [39]: 18.3 µM
TGI [39]: 61.1 µM
GI50 [40]: 17.5 µM
TGI [40]: 58.9 µM
GI50 [41]: 7.17 µM
TGI [41]: > 100 µM
GI50 [42]: 33.9 µM
TGI [42]: > 100 µM
GI50 [43]: 16.9 µM
TGI [43]: 54 µM
GI50 [44]: 17.4 µM
TGI [44]: 42.6 µM
GI50 [45]: 26.8 µM
TGI [45]: > 100 µM
GI50 [46]: 30.6 µM
TGI [46]: 89.9 µM
GI50 [47]: 19.5 µM
TGI [47]: 56.4 µM
GI50 [48]: 5.45 µM
TGI [48]: 27.6 µM
GI50 [49]: 12.4 µM
TGI [49]: 27.4 µM
GI50 [50]: 34.3 µM
TGI [50]: > 100 µM
GI50 [51]: 7.58 µM
TGI [51]: 34.8 µM
GI50 [52]: 40.3 µM
TGI [52]: > 100 µM
GI50 [53]: 23.6 µM
TGI [53]: > 100 µM
GI50 [54]: 17.3 µM
TGI [54]: 38.5 µM
GI50 [55]: 4.27 µM
TGI [55]: 34 µM
